The results in this text go back to patent publication US5219874A, “Heterocyclic acids” (Imperial Chemical Industries PLC, priority 1991, dated 1993).

Usually IC50 stands for the concentration that gives 50% inhibition. A higher IC50 goes with weaker potency in that assay.

Experiment [1] deals with T1, U46619 stimulated platelet aggregation (Homo sapiens, UniProt P21731).
T1 construct: aggregating human, citrated, platelet-rich plasma; endogenous in cells; host or cells: human platelets in citrated platelet-rich plasma
T1 sequence (P21731 1-343): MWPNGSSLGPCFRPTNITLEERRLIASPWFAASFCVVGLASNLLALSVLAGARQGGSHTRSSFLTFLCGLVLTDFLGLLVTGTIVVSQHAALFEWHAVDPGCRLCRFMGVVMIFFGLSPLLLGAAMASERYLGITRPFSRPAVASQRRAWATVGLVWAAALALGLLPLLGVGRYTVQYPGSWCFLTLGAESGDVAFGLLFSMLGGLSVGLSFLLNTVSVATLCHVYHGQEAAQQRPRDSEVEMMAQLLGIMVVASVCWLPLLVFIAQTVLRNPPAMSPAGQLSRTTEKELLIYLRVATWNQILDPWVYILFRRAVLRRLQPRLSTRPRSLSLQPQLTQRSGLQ
In words: test (b): blood platelet aggregation test, TXA2 antagonism against U46619. It is filed as cell-based. The conditions noted are these: human platelet-rich plasma; agonist U46619; read-out: pA2, test (b) (converted). The source says: (b) a blood platelet aggregation test based on that described by Born (Nature, 1962, 194, 927-929) and involving:
(i) aggregating human, citrated, platelet-rich plasma by addition of the TXA2 mimetic agent U46619 so that a dose-response curve is generated;
(ii) generating a dose-response curve for U46619 stimulated platelet aggregation in the presence of increasing amounts of test compound (generally in the range 10^-5 M to 10^-10 M); and
(iii) calculating a pA2 value indicating potency of TXA2 antagonism for the test compound, averaged over several concentrations, from the calculated 50% response value for U46619 aggregation in the presence and absence of test compound; or […]

For experiment [2], the target named is T2, TXA2 synthase (Homo sapiens, UniProt P24557).
T2 construct: using a human platelet microsomal TXA2 synthase preparation; from tissue; host or cells: human platelet microsomes
T2 sequence (P24557 1-533): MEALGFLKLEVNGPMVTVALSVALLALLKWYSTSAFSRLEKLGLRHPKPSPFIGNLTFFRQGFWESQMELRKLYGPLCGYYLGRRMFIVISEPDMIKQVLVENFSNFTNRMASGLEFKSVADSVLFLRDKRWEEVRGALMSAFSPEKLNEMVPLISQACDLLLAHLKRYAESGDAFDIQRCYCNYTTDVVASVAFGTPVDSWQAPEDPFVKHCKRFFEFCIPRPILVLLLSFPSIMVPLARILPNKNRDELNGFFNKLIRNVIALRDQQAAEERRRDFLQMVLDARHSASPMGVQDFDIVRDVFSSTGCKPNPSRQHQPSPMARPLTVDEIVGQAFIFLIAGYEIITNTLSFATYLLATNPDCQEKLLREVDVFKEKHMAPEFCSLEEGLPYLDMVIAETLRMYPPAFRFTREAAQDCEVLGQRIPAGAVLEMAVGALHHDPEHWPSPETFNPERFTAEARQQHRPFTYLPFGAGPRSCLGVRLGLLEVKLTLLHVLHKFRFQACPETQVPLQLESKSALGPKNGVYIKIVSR
In words: test (e): TXA2 synthase inhibition in human platelet microsomal preparation. The experiment is classed as biochemical. The conditions noted are these: [1-^14 C]arachidonic acid.

For experiment [3], the target named is T3, prostacyclin synthase (Homo sapiens, UniProt Q16647).
T3 construct: obtaining cultured human endothelial cells from unbilical vein; endogenous in cells; host or cells: cultured human umbilical vein endothelial cells
T3 sequence (Q16647 1-500): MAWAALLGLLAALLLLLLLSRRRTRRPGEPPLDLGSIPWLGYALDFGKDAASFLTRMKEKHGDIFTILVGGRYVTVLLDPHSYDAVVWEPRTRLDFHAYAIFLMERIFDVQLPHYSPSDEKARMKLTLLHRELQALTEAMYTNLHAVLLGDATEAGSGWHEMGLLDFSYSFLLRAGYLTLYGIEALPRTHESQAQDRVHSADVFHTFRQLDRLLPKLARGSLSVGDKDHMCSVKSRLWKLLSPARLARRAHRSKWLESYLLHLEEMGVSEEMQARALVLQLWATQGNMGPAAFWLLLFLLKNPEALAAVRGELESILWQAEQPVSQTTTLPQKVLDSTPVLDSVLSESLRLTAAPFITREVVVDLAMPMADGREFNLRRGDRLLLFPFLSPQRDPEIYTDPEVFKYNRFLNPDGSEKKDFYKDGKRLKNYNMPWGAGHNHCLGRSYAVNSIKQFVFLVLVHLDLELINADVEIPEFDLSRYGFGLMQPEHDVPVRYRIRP
The experiment in a line: test (g): prostacyclin synthase inhibition in cultured human endothelial cells (6-oxoPGF1a radioimmunoassay). It is filed as cell-based. How it is done: The growth medium is aspirated from the wells and the endothelial cell monolayers are washed twice with alquots of medium (1 ml, Earls 199 medium) containing vehicle or compound. The monolayers are first incubated with medium containing vehicle or compound for 30 minutes at 37° C. Arachidonic acid (10 micro M) is added to the medium and the monolayers are incubated for a further 2 hours with a fresh aliquot of medium. The incubation is terminated by aspiration of the medium into indomethacin (1 micro M). The sample is stored at -20° C. and radioimmunoassay for the stable metabolite 6-oxoPGF1a is performed. By comparison of the amount of 6-oxoPGF1a present in a sample incubated in the presence of compound to one incubated in the absence of compound, the prostacyclin synthase inhibitory properties of the compound may be assessed.

Regarding `Cc1ccc(OC(C)(C)[C@H]2OC[C@@H](C/C=C\CCC(=O)O)[C@@H](c3cncs3)O2)c([N+](=O)[O-])c1` [Example 2], the Kb in experiment [1] was 0.00776 µM. Also, the IC50 in experiment [2] was 0.016 µM; in experiment [3] (human endothelial cells from umbilical vein, unit inferred) it was 211 µM. Besides, in experiment [3] (IC50 greater than 100 micro M deemed no significant inhibition), the “prostacyclin inhibitory properties, test (g)” value is “no significant prostacyclin inhibitory properties”.
